In ChEMBL document CHEMBL4145665, “Structure-Activity Relationship of Novel and Selective Biaryl-Chroman GPR40 AgoPAMs” (ACS Med Chem Lett, 2018):

Columns and labels:
[1] = molecular target: T1, Free fatty acid receptor 1 (Homo sapiens, UniProt O14842); experiment: Agonist activity at recombinant human GPR40 expressed in HEK293 cells assessed as increase in IP1 accumulation measured after 60 mins in presence of 100% human serum by HTRF assay; format: functional, cell-based
[2] = molecular target: T1, Free fatty acid receptor 1; experiment: Agonist activity at recombinant human GPR40 expressed in HEK293 cells assessed as increase in IP1 accumulation measured after 60 mins by HTRF assay relative to AM-1638; format: functional, cell-based
[3] = molecular target: T1, Free fatty acid receptor 1; experiment: Agonist activity at recombinant human GPR40 expressed in HEK293 cells assessed as increase in IP1 accumulation measured after 60 mins in presence of 100% human serum by HTRF assay relative to AM-1638; format: functional, cell-based
[4] = molecular target: T1, Free fatty acid receptor 1; experiment: Agonist activity at recombinant human GPR40 expressed in HEK293 cells assessed as increase in IP1 accumulation measured after 60 mins by HTRF assay; format: functional, cell-based
Rattus norvegicus = experiment: Antidiabetic activity in Sprague-Dawley rat assessed as inhibition of blood glucose AUC at 3 mg/kg, po treated prior to dextrose challenge and measured after 20 to 60 mins by IPGTT relative to control; format: functional; conditions: for inhibition in vivo at 3 mg/kg: Rattus norvegicus, Sprague-Dawley, po
[5] = Lipophilicity, log D of the compound at pH 7 at 100 uM by HPLC method; format: physicochemical; conditions: buffer

T1 sequence (O14842 whole entry): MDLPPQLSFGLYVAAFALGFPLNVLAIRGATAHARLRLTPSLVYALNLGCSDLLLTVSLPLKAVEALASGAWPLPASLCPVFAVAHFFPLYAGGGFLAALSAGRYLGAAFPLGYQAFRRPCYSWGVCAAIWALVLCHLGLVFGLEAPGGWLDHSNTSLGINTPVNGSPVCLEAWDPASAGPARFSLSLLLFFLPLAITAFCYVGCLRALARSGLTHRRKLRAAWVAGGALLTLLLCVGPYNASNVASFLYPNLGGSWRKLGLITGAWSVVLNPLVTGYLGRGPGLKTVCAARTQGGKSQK

SMILES	EC50 [1]	max activation [2]	max activation [3]	EC50 [4]	inhibition in vivo at 3 mg/kg (Rattus norvegicus)	logD at 100 µM [5]	inhibition (INH) (Rattus norvegicus)
COc1cc(-c2ccc(C3CCc4ccc([C@@H](CC(=O)O)C5CC5)cc4O3)cc2)c(F)cn1 (some centres undefined)	1210 nM	460%	224%	–	–	–	–
COc1ccc(F)c(-c2ccc(C3CCc4ccc([C@@H](CC(=O)O)C5CC5)cc4O3)cc2)c1 (mixture of isomers)	1230 nM	359%	188%	7 nM	–	–	–
O=C(O)C[C@H](c1ccc2c(c1)OC(c1ccc(-c3cccc(OC(F)(F)F)c3)cc1)CC2)C1CC1 (mixture of isomers)	6430 nM	385%	73%	934 nM	–	–	–
COc1cc(-c2ccc(C3CCc4ccc([C@H](C5CC5)[C@H](C)C(=O)O)cc4O3)c(F)c2)ccn1 (mixture of isomers)	920 nM	> 179%	> 179%	8.2 nM	84%	–	–
COc1cc(-c2ccc(C3CCc4ccc([C@@H](CC(=O)O)C5CC5)cc4O3)cc2)ccn1 (mixture of isomers)	2560 nM	401%	229%	–	–	–	–
O=C(O)C[C@H](c1ccc2c(c1)OC(c1ccc(-c3cccc(O)c3)cc1)CC2)C1CC1 (mixture of isomers)	4580 nM	422%	231%	391 nM	–	–	–
CSc1cccc(-c2ccc(C3CCc4ccc([C@@H](CC(=O)O)C5CC5)cc4O3)cc2)c1 (mixture of isomers)	5170 nM	500%	144%	–	–	–	–
COc1cccc(-c2ccc(C3CCc4ccc([C@@H](CC(=O)O)C5CC5)cc4O3)cc2)n1 (mixture of isomers)	> 10000 nM	535%	2.4%	–	–	–	–
O=C(O)C[C@H](c1ccc2c(c1)OC(c1ccc(-c3ccccc3)cc1)CC2)C1CC1 (single isomer, unassigned)	5440 nM	452%	57%	133 nM	–	–	–
COc1cccc(-c2ccc(C3CCc4ccc([C@@H](CC(=O)O)C5CC5)cc4O3)cc2)c1 (single isomer, unassigned)	4030 nM	394%	223%	23 nM	–	–	–
COc1ccc(F)c(-c2ccc(C3CCc4ccc([C@H](C5CC5)[C@H](C)C(=O)O)cc4O3)cc2)c1 (stereo in doubt; 15) [listing 1 of 2 here]	127 nM	–	–	2.6 nM	102%	–	–
COc1ccc(F)c(-c2ccc(C3CCc4ccc([C@H](C5CC5)[C@H](C)C(=O)O)cc4O3)cc2)c1 (stereo in doubt; 15) [listing 2 of 2 here]	–	> 179%	> 179%	–	–	–	–
COc1ccc(F)c(-c2ccc(C3CCc4ccc([C@H](C5CC5)[C@H](C)C(=O)O)cc4O3)nc2)c1 (stereo in doubt; 17) [listing 1 of 2 here]	–	–	–	–	100%	–	–
COc1ccc(F)c(-c2ccc(C3CCc4ccc([C@H](C5CC5)[C@H](C)C(=O)O)cc4O3)nc2)c1 (stereo in doubt; 17) [listing 2 of 2 here]	–	> 179%	> 179%	–	–	–	–
COc1ccc(F)c(-c2ccc(C3CCc4ccc([C@H](C5CC5)[C@H](C)C(=O)O)cc4O3)cn2)c1 (stereo in doubt; 18) [listing 1 of 2 here]	5330 nM	–	–	24 nM	–	2.29	–
COc1ccc(F)c(-c2ccc(C3CCc4ccc([C@H](C5CC5)[C@H](C)C(=O)O)cc4O3)cn2)c1 (stereo in doubt; 18) [listing 2 of 2 here]	–	> 179%	> 179%	–	–	–	–
COc1ccc(F)c(-c2ccc(C3CCc4ccc([C@H](C5CC5)[C@H](C)C(=O)O)cc4O3)cn2)c1 (stereo in doubt; 19) [listing 1 of 2 here]	2470 nM	–	–	13 nM	–	–	–
COc1ccc(F)c(-c2ccc(C3CCc4ccc([C@H](C5CC5)[C@H](C)C(=O)O)cc4O3)cn2)c1 (stereo in doubt; 19) [listing 2 of 2 here]	–	> 179%	> 179%	–	–	–	–

SMILES	EC50 [1]	max activation [2]	max activation [3]	EC50 [4]	inhibition in vivo at 3 mg/kg (Rattus norvegicus)	logD at 100 µM [5]	inhibition (INH) (Rattus norvegicus)
COc1cc(-c2ccc(C3CCc4ccc([C@H](C5CC5)[C@H](C)C(=O)O)cc4O3)cc2)c(F)cn1 (stereo in doubt; 20)	–	> 179%	> 179%	–	–	–	–
COc1cc(-c2ccc(C3CCc4ccc([C@H](C5CC5)[C@H](C)C(=O)[O-])cc4O3)cc2)c(F)cn1.[Na+] (stereo in doubt; 21)	105 nM	–	–	< 0.2 nM	–	–	88%
COc1cc(-c2ccc(C3CCc4ccc([C@H](C5CC5)[C@H](C)C(=O)O)cc4O3)cc2)c(F)cn1 (stereo in doubt; 21)	–	> 179%	> 179%	–	–	–	–
COc1cc(-c2ccc(C3CCc4ccc([C@H](C5CC5)[C@H](C)C(=O)O)cc4O3)cc2)ccn1 (stereo in doubt; 22)	–	> 179%	> 179%	–	–	–	–
COc1cc(-c2ccc(C3CCc4ccc([C@H](C5CC5)[C@H](C)C(=O)[O-])cc4O3)cc2)ccn1.[Na+] (stereo in doubt; 23)	521 nM	–	–	–	–	–	7%
COc1cc(-c2ccc(C3CCc4ccc([C@H](C5CC5)[C@H](C)C(=O)O)cc4O3)cc2)ccn1 (stereo in doubt; 23)	–	> 179%	> 179%	–	–	–	–
COc1cc(-c2ccc(C3CCc4ccc([C@H](C5CC5)[C@H](C)C(=O)O)cc4O3)c(F)c2)c(F)cn1 (stereo in doubt; 26)	–	> 179%	> 179%	–	–	–	–
COc1cc(-c2ccc(C3CCc4ccc([C@H](C5CC5)[C@H](C)C(=O)[O-])cc4O3)c(F)c2)c(F)cn1.[Na+] (stereo in doubt; 27)	328 nM	–	–	–	–	–	38%
COc1cc(-c2ccc(C3CCc4ccc([C@H](C5CC5)[C@H](C)C(=O)O)cc4O3)c(F)c2)c(F)cn1 (stereo in doubt; 27)	–	> 179%	> 179%	–	–	–	–
COc1cc(-c2ccc(C3CCc4ccc([C@H](C5CC5)[C@H](C)C(=O)O)cc4O3)nc2)c(F)cn1 (stereo in doubt; 28)	–	> 179%	> 179%	–	–	–	–
COc1cc(-c2cnc(C3CCc4ccc([C@H](C5CC5)[C@H](C)C(=O)O)cc4O3)c(F)c2)c(F)cn1 (stereo in doubt; 30) [listing 1 of 2 here]	382 nM	–	–	–	–	2.36	–
COc1cc(-c2cnc(C3CCc4ccc([C@H](C5CC5)[C@H](C)C(=O)O)cc4O3)c(F)c2)c(F)cn1 (stereo in doubt; 30) [listing 2 of 2 here]	–	> 179%	> 179%	–	–	–	–
COc1cc(-c2cnc(C3CCc4ccc([C@H](C5CC5)[C@H](C)C(=O)O)cc4O3)c(F)c2)c(F)cn1 (stereo in doubt; 31) [listing 1 of 2 here]	757 nM	–	–	–	–	–	–
COc1cc(-c2cnc(C3CCc4ccc([C@H](C5CC5)[C@H](C)C(=O)O)cc4O3)c(F)c2)c(F)cn1 (stereo in doubt; 31) [listing 2 of 2 here]	–	> 179%	> 179%	–	–	–	–
COc1cc(-c2ccc(C3CCc4ccc([C@H](C5CC5)[C@H](C)C(=O)O)cc4O3)nc2)ccn1 (stereo in doubt; 32) [listing 1 of 2 here]	838 nM	–	–	–	–	1.74	–
COc1cc(-c2ccc(C3CCc4ccc([C@H](C5CC5)[C@H](C)C(=O)O)cc4O3)nc2)ccn1 (stereo in doubt; 32) [listing 2 of 2 here]	–	> 179%	> 179%	–	–	–	–
COc1cc(-c2ccc(C3CCc4ccc([C@H](C5CC5)[C@H](C)C(=O)O)cc4O3)nc2)ccn1 (stereo in doubt; 33) [listing 1 of 2 here]	462 nM	–	–	–	–	–	–
COc1cc(-c2ccc(C3CCc4ccc([C@H](C5CC5)[C@H](C)C(=O)O)cc4O3)nc2)ccn1 (stereo in doubt; 33) [listing 2 of 2 here]	–	> 179%	> 179%	–	–	–	–
